Experimental data from US20250228950A1 (priority 2017, published 2025).

Key:
[1] = system: MDA-MB-231 breast cancer cells; experiment: MDA-MB-231 cell growth inhibition / cytotoxicity assay, incl. pH 6.2 vs pH 7.4; conditions: for cell growth inhibitory activity / pH-dependent cytotoxicity: MDA-MB-231 cells; for cell growth inhibitory activity: FIG. 3 legend; for IC50: Homo sapiens; for pH-dependent cytotoxicity: pH 6.2 over pH 7.4
EMT-6 cells = experiment: EMT-6 cytotoxicity at pH 6.2 vs pH 7.4; format: cell-based

Structure (SMILES)	cell growth inhibitory activity [1]	IC50 ([1]; MDA-MB-231, pH 6.2) [µM]	IC50 ([1]; MDA-MB-231, pH 7.4) [µM]	pH-dependent cytotoxicity [1]	IC50 (EMT-6 cells; Mus musculus, EMT6, tumor pH 6.2) [µM]	toxicity in this assay (EMT-6 cells; normal physiological pH 7.4)
O=P1(N(CCCl)CCCl)NCCCO1 (centres unmarked) [Cyclophosphamide, reference compound]	remains inactive					
NP(=O)(OCCSSCCCc1c(F)c(F)c(O)c(F)c1F)N(CCCl)CCCl (centres unmarked) [YU252213]	shows cell growth inhibitory activity	41.4	> 100	preferential cytotoxicity in acidic conditions		
O=C(Nc1ccc(N(CCCl)CCCl)cc1)OCCSSCCCc1c(F)c(F)c(O)c(F)c1F [YU252353]				preferential cytotoxicity in acidic conditions	28.7	no detectable toxicity
